The conditions of series [1]: in vivo; cited from earlier work.
Series [2] concerns the target His6-TEV-PDGFRβ (557-1016) (Homo sapiens (Human), UniProt P09619). Kind of series: PDGFRβ HTRF Assay. The format is biochemical. On the technique in general: In TR-FRET formats the signal depends on donor and acceptor labels being close together.
In another series the target is VEGFR2, unphosphorylated (Homo sapiens (Human), UniProt P35968). The series can be described thus: VEGFR ADP GLO assay. The format is biochemical. The conditions noted are these: 5 nM VEGFR2, 1.2 mM ATP, 1 mg/mL Srctide, 180 min. In short, it runs like this:
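Luminescent ADP detection after a 180-min room-temperature reaction of srctide plus ATP (2 mg/mL and 2.4 mM in 2× mix) in pH 7.5 HEPES buffer with DTT, Pluronic and ovalbumin. Compounds, 11 points from 10 µM, first pre-incubated 30 min with enzyme (2× mix 10 nM). IC50s fitted after scaling between DMSO and 1 µM TAK-593 controls.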
On the technique in general: ADP-Glo first removes unused ATP, then detects ADP through luciferase.

In another series the target is PDGFRβ (Rattus norvegicus (Rat), UniProt Q05030). The series can be described thus: PDGFRβ Cellular Assay (PDGFRb P-Y751 HTRF, PDGF-BB stimulated A10 cells). The format is cell-based. In outline: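 Rat A10 cells plated overnight were treated with compound for 3 h, stimulated with rat PDGF-BB (working stock 100 ng/mL in 10% FBS medium) for 10 min, then lysed.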
Series [3] concerns the target Tb-labeled inactive PDGFRβ (Homo sapiens (Human), UniProt P09619). Kind of series: biochemical. Format: binding.
Setting [4] is: 800 μM ATP, 0.5 μM TK-substrate biotin peptide, 30 min pre-incubation, 3 hours reaction, read-out: PDGFR HTRF IC50.
Where [5] appears, read: A10 cells, 3 hours compound, 15 ng/mL PDGFbb for 10 minutes, read-out: PDGFR Cellular IC50.

Like-named read-outs stand apart in the source and are kept apart here.

PDGFRβ, sequence (Q05030 whole entry, looked up): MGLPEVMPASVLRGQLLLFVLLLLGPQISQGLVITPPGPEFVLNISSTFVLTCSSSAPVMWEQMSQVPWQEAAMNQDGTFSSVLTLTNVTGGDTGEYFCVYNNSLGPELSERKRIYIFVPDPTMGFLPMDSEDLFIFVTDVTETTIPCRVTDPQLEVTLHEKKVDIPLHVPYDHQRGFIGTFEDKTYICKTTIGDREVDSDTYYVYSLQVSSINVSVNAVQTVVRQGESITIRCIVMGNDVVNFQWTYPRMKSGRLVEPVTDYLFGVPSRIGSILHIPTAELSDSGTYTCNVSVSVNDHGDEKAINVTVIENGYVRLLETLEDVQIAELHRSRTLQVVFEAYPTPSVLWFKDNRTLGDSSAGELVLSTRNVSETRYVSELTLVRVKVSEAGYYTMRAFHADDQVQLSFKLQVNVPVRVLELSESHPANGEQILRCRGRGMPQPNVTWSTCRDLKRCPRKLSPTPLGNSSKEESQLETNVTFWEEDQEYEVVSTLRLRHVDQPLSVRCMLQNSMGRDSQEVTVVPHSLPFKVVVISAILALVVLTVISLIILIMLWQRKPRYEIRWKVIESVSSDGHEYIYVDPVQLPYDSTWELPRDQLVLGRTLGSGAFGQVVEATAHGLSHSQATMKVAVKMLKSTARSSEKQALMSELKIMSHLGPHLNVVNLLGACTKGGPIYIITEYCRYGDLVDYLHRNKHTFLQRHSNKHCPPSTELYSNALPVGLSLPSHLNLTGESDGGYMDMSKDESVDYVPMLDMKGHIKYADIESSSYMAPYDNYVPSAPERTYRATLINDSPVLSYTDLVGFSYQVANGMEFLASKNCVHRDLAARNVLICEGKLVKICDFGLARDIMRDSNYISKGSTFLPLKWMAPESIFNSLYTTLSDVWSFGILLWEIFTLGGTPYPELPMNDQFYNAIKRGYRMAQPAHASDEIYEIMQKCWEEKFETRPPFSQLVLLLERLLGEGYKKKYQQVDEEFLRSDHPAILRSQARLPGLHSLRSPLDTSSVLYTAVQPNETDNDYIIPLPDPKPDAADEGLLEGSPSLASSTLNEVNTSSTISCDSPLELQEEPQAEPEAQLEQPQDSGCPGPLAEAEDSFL
VEGFR2, unphosphorylated, sequence (P35968 whole entry, looked up): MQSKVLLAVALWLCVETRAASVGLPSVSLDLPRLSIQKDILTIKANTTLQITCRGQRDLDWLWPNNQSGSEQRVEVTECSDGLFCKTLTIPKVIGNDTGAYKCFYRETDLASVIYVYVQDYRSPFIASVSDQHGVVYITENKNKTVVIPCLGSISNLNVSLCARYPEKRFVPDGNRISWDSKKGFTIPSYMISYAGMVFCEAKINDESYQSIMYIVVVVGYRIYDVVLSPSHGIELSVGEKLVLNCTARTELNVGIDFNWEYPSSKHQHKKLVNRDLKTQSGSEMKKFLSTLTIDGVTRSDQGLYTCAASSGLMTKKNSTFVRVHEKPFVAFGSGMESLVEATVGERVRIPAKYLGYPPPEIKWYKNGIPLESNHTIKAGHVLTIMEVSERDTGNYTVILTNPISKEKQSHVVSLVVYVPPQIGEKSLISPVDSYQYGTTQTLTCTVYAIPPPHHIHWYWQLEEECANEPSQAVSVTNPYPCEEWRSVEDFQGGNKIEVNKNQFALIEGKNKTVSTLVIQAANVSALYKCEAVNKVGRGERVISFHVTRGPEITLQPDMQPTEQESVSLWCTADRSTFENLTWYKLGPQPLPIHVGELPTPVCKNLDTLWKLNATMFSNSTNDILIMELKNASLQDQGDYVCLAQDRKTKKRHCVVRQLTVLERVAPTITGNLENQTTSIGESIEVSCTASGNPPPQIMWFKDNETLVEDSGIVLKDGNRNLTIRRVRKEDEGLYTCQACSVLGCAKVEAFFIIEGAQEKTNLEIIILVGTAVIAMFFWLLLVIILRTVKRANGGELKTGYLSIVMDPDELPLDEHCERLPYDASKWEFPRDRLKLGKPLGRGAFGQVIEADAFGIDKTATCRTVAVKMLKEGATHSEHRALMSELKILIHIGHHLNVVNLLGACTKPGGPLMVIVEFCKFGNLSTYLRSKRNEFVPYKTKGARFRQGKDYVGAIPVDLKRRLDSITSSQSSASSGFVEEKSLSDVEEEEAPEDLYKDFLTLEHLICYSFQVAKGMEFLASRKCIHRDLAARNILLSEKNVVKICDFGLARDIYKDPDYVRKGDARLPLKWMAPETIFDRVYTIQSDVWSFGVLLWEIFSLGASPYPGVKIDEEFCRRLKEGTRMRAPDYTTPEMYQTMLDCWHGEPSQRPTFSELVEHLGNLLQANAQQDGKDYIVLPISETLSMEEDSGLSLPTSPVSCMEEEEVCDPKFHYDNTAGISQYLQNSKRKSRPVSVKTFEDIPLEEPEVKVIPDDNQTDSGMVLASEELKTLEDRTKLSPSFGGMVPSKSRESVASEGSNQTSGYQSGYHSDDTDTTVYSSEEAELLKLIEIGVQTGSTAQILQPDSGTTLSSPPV
Tb-labeled inactive PDGFRβ, sequence (P09619 whole entry, looked up): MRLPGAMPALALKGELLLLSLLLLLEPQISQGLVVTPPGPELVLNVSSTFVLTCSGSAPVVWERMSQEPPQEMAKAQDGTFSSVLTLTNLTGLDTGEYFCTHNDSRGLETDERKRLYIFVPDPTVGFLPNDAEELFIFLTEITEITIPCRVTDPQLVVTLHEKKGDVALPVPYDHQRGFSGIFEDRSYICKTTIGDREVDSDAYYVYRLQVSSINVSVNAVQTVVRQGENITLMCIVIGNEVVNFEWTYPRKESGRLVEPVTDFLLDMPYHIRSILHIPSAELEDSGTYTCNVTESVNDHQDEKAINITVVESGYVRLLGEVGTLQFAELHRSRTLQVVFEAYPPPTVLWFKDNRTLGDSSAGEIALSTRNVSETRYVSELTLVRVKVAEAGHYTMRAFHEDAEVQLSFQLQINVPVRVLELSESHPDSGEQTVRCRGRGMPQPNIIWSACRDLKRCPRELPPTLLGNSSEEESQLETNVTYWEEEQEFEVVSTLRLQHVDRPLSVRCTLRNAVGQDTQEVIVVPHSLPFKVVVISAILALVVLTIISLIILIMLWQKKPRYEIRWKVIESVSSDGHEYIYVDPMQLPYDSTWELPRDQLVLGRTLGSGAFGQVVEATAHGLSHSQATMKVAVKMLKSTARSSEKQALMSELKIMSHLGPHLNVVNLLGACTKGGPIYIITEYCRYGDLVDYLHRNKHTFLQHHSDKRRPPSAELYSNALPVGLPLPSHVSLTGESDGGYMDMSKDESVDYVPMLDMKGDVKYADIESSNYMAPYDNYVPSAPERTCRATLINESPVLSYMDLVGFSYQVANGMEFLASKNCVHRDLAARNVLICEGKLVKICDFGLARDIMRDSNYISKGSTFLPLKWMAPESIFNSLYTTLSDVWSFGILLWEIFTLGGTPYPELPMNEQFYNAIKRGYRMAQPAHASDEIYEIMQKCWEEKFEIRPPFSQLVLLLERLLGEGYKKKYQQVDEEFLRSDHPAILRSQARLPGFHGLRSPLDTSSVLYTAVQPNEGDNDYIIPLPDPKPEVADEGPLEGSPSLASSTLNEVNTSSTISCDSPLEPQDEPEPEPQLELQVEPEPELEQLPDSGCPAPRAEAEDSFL
His6-TEV-PDGFRβ (557-1016), sequence (P09619 whole entry, looked up): as above

Take `Cc1nc(Nc2ncc(C(=O)Nc3c(C)cccc3Cl)s2)cc(N2CCN(CCO)CC2)n1` [dasatinib]: the “cardiotoxicity and development of pulmonary hypertension” value in series [1] was “linked to cardiotoxicity and the development of pulmonary hypertension”.
On to `Cc1ncc(C(=O)NCCN2CCCC2(C)C)cc1Nc1nn(C)c2nc(Nc3cnn(C)c3C)ncc12` [Example 156, 5-((6-((1,5-dimethyl-1H-pyrazol-4-yl)amino)-1-methyl-1H-pyrazolo[3,4-d]pyrimidin-3-yl)amino)-N-(2-(2,2-dimethylpyrrolidin-1-yl)ethyl)-6-methylnicotinamide], for which the IC50 is 2.15 nM in series [2] (setting [4]); above 7500 nM on VEGFR2, unphosphorylated; 19.7 nM on PDGFRβ (setting [5]); 20.2 nM in series [3] (read-out: PDGFR Lantha IC50).
The corresponding values for `Cc1ncc(C(=O)NCCN2[C@H](C)COC[C@H]2C)cc1Nc1nn(C)c2nc(Nc3cnn(C)c3)ncc12` (relative stereo) [Example 94, N-(2-(trans-3,5-dimethylmorpholino)ethyl)-6-methyl-5-((1-methyl-6-((1-methyl-1H-pyrazol-4-yl)amino)-1H-pyrazolo[3,4-d]pyrimidin-3-yl)amino)nicotinamide] are 0.33 nM, 1170 nM, 13.9 nM and 2.1 nM.
The matching figures for `Cc1nn(C)cc1Nc1ncc2c(Nc3cc(C(=O)NCCN4CCC5(CC5)C4)cnc3C)nn(C)c2n1` [Example 154, N-(2-(5-azaspiro[2.4]heptan-5-yl)ethyl)-5-((6-((1,3-dimethyl-1H-pyrazol-4-yl)amino)-1-methyl-1H-pyrazolo[3,4-d]pyrimidin-3-yl)amino)-6-methylnicotinamide]: 1.41 nM, above 7500 nM, 120 nM and 12 nM.
The matching figures for `Cc1ncc(C(=O)NCCN2CCCC2(C)C)cc1Nc1nn(C)c2nc(Nc3cncc(C(N)=O)c3)ncc12` [Example 29, 5-((6-((5-carbamoylpyridin-3-yl)amino)-1-methyl-1H-pyrazolo[3,4-d]pyrimidin-3-yl)amino)-N-(2-(2,2-dimethylpyrrolidin-1-yl)ethyl)-6-methylnicotinamide]: 0.8 nM, above 10000 nM, 5330 nM and 6.6 nM.
For `Cc1ncc(C(=O)NCCN2CCCCC23CC3)cc1Nc1nn(C)c2nc(Nc3cncnc3)ncc12` [Example 56, N-(2-(4-azaspiro[2.5]octan-4-yl)ethyl)-6-methyl-5-((1-methyl-6-(pyrimidin-5-ylamino)-1H-pyrazolo[3,4-d]pyrimidin-3-yl)amino)nicotinamide], the IC50 is 0.54 nM in series [2] (setting [4]); above 7500 nM at VEGFR2, unphosphorylated; 9.7 nM on PDGFRβ (setting [5]); 3 nM in series [3] (read-out: PDGFR Lantha IC50).
The corresponding values for `COCCn1cc(Nc2ncc3c(Nc4cc(C(=O)NCCN5CCCC56CCC6)cnc4C)nn(C)c3n2)cn1` [Example 147, N-(2-(5-azaspiro[3.4]octan-5-yl)ethyl)-5-((6-((1-(2-methoxyethyl)-1H-pyrazol-4-yl)amino)-1-methyl-1H-pyrazolo[3,4-d]pyrimidin-3-yl)amino)-6-methylnicotinamide] are 0.38 nM, 2670 nM, 14.7 nM and 2.1 nM.
The corresponding values for `Cc1ncc(C(=O)NCCC2CCCCC2)cc1Nc1nn(C)c2nc(Nc3cncc(CC(=O)O)c3)ncc12` [Example 107, 2-(5-((3-((5-((2-cyclohexylethyl)carbamoyl)-2-methylpyridin-3-yl)amino)-1-methyl-1H-pyrazolo[3,4-d]pyrimidin-6-yl)amino)pyridin-3-yl)acetic acid] are 0.55 nM, 11 nM, above 2000 nM and 2.8 nM.
Turning to `Cc1ncc(C(=O)NCCN2C3CCC2CC3)cc1Nc1nn(C)c2nc(Nc3cnn(C)c3)ncc12` [Example 153, N-(2-(7-azabicyclo[2.2.1]heptan-7-yl)ethyl)-6-methyl-5-((1-methyl-6-((1-methyl-1H-pyrazol-4-yl)amino)-1H-pyrazolo[3,4-d]pyrimidin-3-yl)amino)nicotinamide], the concentration for half-maximal inhibition (IC50) was 0.26 nM in series [2] (setting [4]); above 7500 nM on VEGFR2, unphosphorylated; 113 nM at PDGFRβ (setting [5]); 1.3 nM in series [3] (read-out: PDGFR Lantha IC50).
As to `COCCn1cc(Nc2ncc3c(Nc4cc(C(=O)NCCN5CCCC5(C)C)cnc4C)nn(C)c3n2)cn1` [Example 148, N-(2-(2,2-dimethylpyrrolidin-1-yl)ethyl)-5-((6-((1-(2-methoxyethyl)-1H-pyrazol-4-yl)amino)-1-methyl-1H-pyrazolo[3,4-d]pyrimidin-3-yl)amino)-6-methylnicotinamide], the IC50 in series [2] (setting [4]) is 0.74 nM; at VEGFR2, unphosphorylated, above 7500 nM; on PDGFRβ (setting [5]) it was 64.9 nM; in series [3] (read-out: PDGFR Lantha IC50), 4.3 nM.
The matching figures for `COCCn1cc(Nc2ncc3c(Nc4cc(NC(=O)CN5CC(C)(C)C5)cnc4C)nn(C)c3n2)cn1` [Example 126, 2-(3,3-dimethylazetidin-1-yl)-N-(5-((6-((1-(2-methoxyethyl)-1H-pyrazol-4-yl)amino)-1-methyl-1H-pyrazolo[3,4-d]pyrimidin-3-yl)amino)-6-methylpyridin-3-yl)acetamide]: 0.33 nM, 6880 nM, 6 nM and 2.1 nM.
The matching figures for `Cc1ncc(NC(=O)C2(C(=O)N3CCNCC3)CC2)cc1Nc1nn(C)c2nc(Nc3cnn(C)c3)ncc12` [Example 117, N-(6-methyl-5-((1-methyl-6-((1-methyl-1H-pyrazol-4-yl)amino)-1H-pyrazolo[3,4-d]pyrimidin-3-yl)amino)pyridin-3-yl)-1-(piperazine-1-carbonyl) cyclopropanecarboxamide]: 4.28 nM, above 7500 nM, above 2000 nM and 147 nM.
As to `Cc1ncc(C(=O)NCCC2CCCCC2)cc1Nc1nn(C)c2nc(Nc3ccc(CC(=O)O)nc3)ncc12` [Example 106, 2-(5-((3-((5-((2-cyclohexylethyl)carbamoyl)-2-methylpyridin-3-yl)amino)-1-methyl-1H-pyrazolo[3,4-d]pyrimidin-6-yl)amino)pyridin-2-yl)acetic acid], the IC50 amounted to 0.76 nM in series [2]; 915 nM against VEGFR2, unphosphorylated; 12.6 nM at PDGFRβ; 3.6 nM in series [3].
In the case of `COC1CCN(CC(=O)Nc2cnc(C)c(Nc3nn(C)c4nc(Nc5cnn(C)c5)ncc34)c2)CC1` [Example 134, 2-(4-methoxypiperidin-1-yl)-N-(6-methyl-5-((1-methyl-6-((1-methyl-1H-pyrazol-4-yl)amino)-1H-pyrazolo[3,4-d]pyrimidin-3-yl)amino)pyridin-3-yl)acetamide], the IC50 in series [2] (setting [4]) is 0.43 nM; at VEGFR2, unphosphorylated it was above 7500 nM; at PDGFRβ (setting [5]) it was 7.4 nM; in series [3] (read-out: PDGFR Lantha IC50), 3.1 nM.

In general, IC50 refers to the concentration that gives 50% inhibition.

Values taken from US20240360134A1, “PYRAZOLOPYRIMIDINES AND THEIR USES AS PDGFR INHIBITORS” (priority 2021, published 2024).
